The text below walks through data of US20240116850A1, “COMPOSITIONS AND METHODS RELATED TO BICYCLO[2.2.1] HEPTANAMINE-CONTAINING COMPOUNDS” (The Broad Institute, Inc., priority 2020, published 2024).

Structures are written as SMILES.

One experiment concerns MUC1-fs. Nature of the experiment: High-content imaging assay of MUC1-fs total cytoplasm intensity in P cells. The experiment is classed as cell-based. The note with it: for EC50: MUC1-fs total cytoplasm intensity, P cells, 48 hr incubation; for ECMax: MUC1-fs, DMSO = 0, JQ1 (250 nM) = −100% activity. Here is the method: (§1) P cells were seeded 24 hr prior to compound treatment at a density of 12,000 cells/well in 384 well Cell Carrier Ultra plates (6057308, Perkin Elmer), pre-coated with 0.25 mg/mL Synthemax 11 SC Substrate (3535, Corning). Compounds were used at 5 doses (35, 3.5, 0.35, 0.035 and 0.0035 μM) for the primary screen and 10 doses (16, 5.6, 1.8, 0.6, 0.21, 0.07, 0.02, 0.008, 0.002 and 0.0008 μM) for the following screens. The compounds, in two replicates, were transferred from compound source plates to the cell plates using the HighRes Pin Tool. DMSO was used as a negative control and JQ1 (250 nM) (a bromodomain inhibitor) was chosen as a positive control, based on earlier studies showing its potent effect on reducing total MUC1 mRNA levels (data not shown). After 48 hr incubation, cells were fixed for 20 min in 4% PFA (Electron Microscopy Sciences) in PBS, washed twice, then permeabilized (10 min) with 0.5% Triton-X100 (X100-100MVL, Sigma-Aldrich) in PBS and washed once more. Cells were blocked for 10 min at RT with Blocking solution (100 mM Tris HCL pH8; l150 mM NaCL; 5 g/L Blocking Reagent [11096176001, Roche]), then incubated 90 min at RT with one of the following primary antibodies in Roche Blocking solution: 1:500, monoclonal Fab-A-V5H anti-MUC1-fs, AbD22655.2, Bio-Rad; 1:2000, monoclonal mouse anti-MUC1 (214D4), 05-652-KC, Millipore; 1:1000, monoclonal, Rabbit anti-GM130 (D6B1) XP, 12480, Cell signaling technology. The primary antibody cocktail was incubated at RT for 1.5 hr, followed by four PBS wash cycles. The secondary antibody cocktail contained four components that were all prepared at a 1:1000 dilution in the Roche blocking solution and consisted of Alexa Fluor® 488-conjugated AffiniPure F(ab′)2 Fragment Goat anti-Human IgG, 109-546-097, Jackson Immunoresearch; Alexa Fluor® 647-conjugated Goat anti-Rabbit IgG, A-21246, Thermo Fisher Scientific®; Alexa Fluor® 546 Goat anti-mouse IgG, A-21123, Thermo Fisher Scientific® and Hoechst 33342 stain (62249, Thermo Fisher Scientific®). The secondary antibody cocktail was incubated at RT for 45 min, followed by four PBS wash cycles. Finally, plates were sealed with a Plate Loc plate and stored in Liconic incubator at 10° C. until imaging. Following image analysis, three parameters were selected, i) MUC1-fs and ii) MUC1-wt total cytoplasm intensity (averaged per cell) and iii) cell number as was detected by Hoechst 33342 stained nuclei. The levels of MUC1-fs and MUC1-wt found following DMSO and JQ1 were defined as 0 and −100% activity, respectively. The values obtained for all compounds were normalized accordingly. Cell number was normalized to DMSO control.
(§2) The pure enantiomers were profiled in the high-content imaging assay for the ability to reduce the amount of FS MUC1 protein in the cytoplasm (Table 48) following the procedure of Example 4.

A further experiment relates to MUC1-wt. Nature of the experiment: High-content imaging assay of MUC1-wt total cytoplasm intensity in P cells. The experiment is classed as cell-based. The note with it: for EC50: MUC1-wt total cytoplasm intensity, P cells, 48 hr incubation; for WT ECMax: MUC1-wt, DMSO = 0, JQ1 (250 nM) = −100% activity. How it is done: as §1, §2

In the case of `CC(C)C[C@H]1[C@H]2CC[C@H](C2)[C@@H]1N.Cl` (single isomer, unassigned) [Compound 112-P1], in the experiment on MUC1-fs, the EC50 is above 32 µM and the ECMax is reported as 26.46%. Further, in the experiment on MUC1-wt, the EC50 is below 32 µM and the “WT ECMax” value is listed as 9.15%.
In the same order, the values of `CC(C)C[C@@H]1[C@@H]2CC[C@@H](C2)[C@H]1N.Cl` (single isomer, unassigned) [Compound 112-P2] are above 32 µM, 13.14%, above 32 µM and 7.52%.
As for `Cl.N[C@@H]1[C@@H]2CC[C@@H](C2)[C@H]1C1CCC1` (single isomer, unassigned) [Compound 113-P1], in the experiment on MUC1-fs, the EC50 was above 32 µM and the ECMax is reported as −13.24%. In the experiment with MUC1-wt, the EC50 is above 32 µM and the “WT ECMax” value was −9.71%.
As to `Cl.N[C@H]1[C@@H]2CC[C@@H](C2)[C@@H]1C1CCC1` (single isomer, unassigned) [Compound 114-P1], in the experiment with MUC1-fs, the EC50 came out at 29.9 µM and the ECMax is recorded as −28.1%. Further, in the experiment with MUC1-wt, the EC50 is above 32 µM and the “WT ECMax” value was found to be 5.99%.
In the same order, the values of `Cl.N[C@@H]1[C@H]2CC[C@H](C2)[C@H]1C1CCC1` (single isomer, unassigned) [Compound 114-P2] are above 32 µM, −15.43%, above 32 µM and 9.94%.
For `Cl.N[C@@H]1[C@@H]2CC[C@@H](C2)[C@H]1C1CCCC1` (single isomer, unassigned) [Compound 116-P1] the same measures were above 32 µM, −10.6%, above 32 µM and 18.63%.
In the case of `Cl.N[C@H]1[C@H]2CC[C@H](C2)[C@@H]1C1CCCC1` (single isomer, unassigned) [Compound 116-P2], in the experiment with MUC1-fs, the EC50 was above 32 µM and the ECMax is recorded as −16.96%. Besides, in the experiment with MUC1-wt, the EC50 is above 32 µM and the “WT ECMax” value was −19.89%.
On to `Cl.N[C@H]1[C@@H]2CC[C@@H](C2)[C@@H]1C1CCCC1` (single isomer, unassigned) [Compound 117-P1], for which, in the experiment on MUC1-fs, the EC50 was found to be 25.9 µM and the ECMax was −16.91%. Besides, in the experiment with MUC1-wt, the EC50 is above 32 µM and the “WT ECMax” value worked out at 7.72%.
For `Cl.N[C@@H]1[C@H]2CC[C@H](C2)[C@H]1C1CCCC1` (single isomer, unassigned) [Compound 117-P2], in the experiment on MUC1-fs, the EC50 is above 32 µM and the ECMax is −15.88%. In the experiment with MUC1-wt, the EC50 is above 32 µM and the “WT ECMax” value was −15.43%.
Take `Cl.N[C@@H]1[C@@H]2CC[C@@H](C2)[C@H]1C1CCCCC1` (single isomer, unassigned) [Compound 118-P1]: in the experiment with MUC1-fs, the concentration for a half-maximal effect (EC50) was above 32 µM and the ECMax is −7.97%. In the experiment with MUC1-wt, the EC50 is above 32 µM and the “WT ECMax” value was 9.54%.
Turning to `Cl.N[C@H]1[C@H]2CC[C@H](C2)[C@@H]1C1CCCCC1` (single isomer, unassigned) [Compound 118-P2], in the experiment on MUC1-fs, the EC50 was above 32 µM and the ECMax was determined as 0%. Further, in the experiment with MUC1-wt, the EC50 is above 32 µM and the “WT ECMax” value was 0%.
In the case of `Cl.N[C@H]1[C@@H]2CC[C@@H](C2)[C@@H]1C1CCCCC1` (single isomer, unassigned) [Compound 119-P1], in the experiment on MUC1-fs, the EC50 was above 32 µM and the ECMax is −14.14%. Also, in the experiment with MUC1-wt, the EC50 was above 32 µM and the “WT ECMax” value is given as −14.31%.
On to `Cl.N[C@@H]1[C@H]2CC[C@H](C2)[C@H]1C1CCCCC1` (single isomer, unassigned) [Compound 119-P2], for which, in the experiment with MUC1-fs, the EC50 is above 32 µM and the ECMax was 0%. Further, in the experiment with MUC1-wt, the EC50 was above 32 µM and the “WT ECMax” value is recorded as 0%.

For orientation: EC50 means the concentration giving half of the maximal effect. Read a high EC50 as a need for much substance.
